Data: PMC6979384, “Characterization of the plant homeodomain (PHD) reader family for their histone tail interactions” (Epigenetics & Chromatin, 2020)

Assays:
Experiment in all cases: Histone peptide microarray
Type in all cases: binding, human
KDM5A (1) = conditions: sheet "Array Heatmap"; GST-tagged KDM5A (1); arrays performed twice, total replicate number n = 4
Summary of the method: (§1)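 Histone peptide library (293 synthetic peptides, single/combinatorial PTMs) arrayed and probed with 0.5 μM purified GST-PHD domain; optimized protocol; quadruplicate mean and SD reported.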

MORC3 (CW) = conditions: sheet "Array Heatmap"; GST-tagged MORC3 (CW); arrays performed twice, total replicate number n = 4
Summary of the method: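 GST-PHD reader, 0.5 μM, probed on 293-peptide histone array (single/combinatorial PTMs); optimized array protocol; signal = mean ± SD, n = 4.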

ING3 = conditions: sheet "Array Heatmap"; GST-tagged ING3; arrays performed twice, total replicate number n = 4
Summary of the method: as §1

TAF3 = conditions: sheet "Array Heatmap"; GST-tagged TAF3; arrays performed twice, total replicate number n = 4
Summary of the method: as §1

BAZ2B = conditions: sheet "Array Heatmap"; GST-tagged BAZ2B; arrays performed twice, total replicate number n = 4
Summary of the method: as §1

PHRF1 (RP) = conditions: sheet "Array Heatmap"; GST-tagged PHRF1 (RP); arrays performed twice, total replicate number n = 4
Summary of the method: as §1

ING1 = conditions: sheet "Array Heatmap"; GST-tagged ING1; arrays performed twice, total replicate number n = 4
Summary of the method: as §1

DIDO1 = conditions: sheet "Array Heatmap"; GST-tagged DIDO1; arrays performed twice, total replicate number n = 4
Summary of the method: as §1

ING5 = conditions: sheet "Array Heatmap"; GST-tagged ING5; arrays performed twice, total replicate number n = 4
Summary of the method: as §1

CHD5 (PCC) = conditions: sheet "Array Heatmap"; GST-tagged CHD5 (PCC); arrays performed twice, total replicate number n = 4
Summary of the method: as §1

PHF13 = conditions: sheet "Array Heatmap"; GST-tagged PHF13; arrays performed twice, total replicate number n = 4
Summary of the method: as §1

PHF8 = conditions: sheet "Array Heatmap"; GST-tagged PHF8; arrays performed twice, total replicate number n = 4
Summary of the method: as §1

TRIM66 (PB) = conditions: sheet "Array Heatmap"; GST-tagged TRIM66 (PB); arrays performed twice, total replicate number n = 4
Summary of the method: as §1

PHF23 = conditions: sheet "Array Heatmap"; GST-tagged PHF23; arrays performed twice, total replicate number n = 4
Summary of the method: as §1

CHD5 (PPCC) = conditions: sheet "Array Heatmap"; GST-tagged CHD5 (PPCC); arrays performed twice, total replicate number n = 4
Summary of the method: as §1

MLL5 = conditions: sheet "Array Heatmap"; GST-tagged MLL5; arrays performed twice, total replicate number n = 4
Summary of the method: as §1

PHF2 = conditions: sheet "Array Heatmap"; GST-tagged PHF2; arrays performed twice, total replicate number n = 4
Summary of the method: as §1

KDM5B (3) = conditions: sheet "Array Heatmap"; GST-tagged KDM5B (3); arrays performed twice, total replicate number n = 4
Summary of the method: as §1

ING2 = conditions: sheet "Array Heatmap"; GST-tagged ING2; arrays performed twice, total replicate number n = 4
Summary of the method: as §1

AIRE (PP) = conditions: sheet "Array Heatmap"; GST-tagged AIRE (PP); arrays performed twice, total replicate number n = 4
Summary of the method: as §1

SP140L = conditions: sheet "Array Heatmap"; GST-tagged SP140L; arrays performed twice, total replicate number n = 4
Summary of the method: as §1

KDM5B (1) = conditions: sheet "Array Heatmap"; GST-tagged KDM5B (1); arrays performed twice, total replicate number n = 4
Summary of the method: as §1

KDM5A (3) = conditions: sheet "Array Heatmap"; GST-tagged KDM5A (3); arrays performed twice, total replicate number n = 4
Summary of the method: as §1

RAG2 = conditions: sheet "Array Heatmap"; GST-tagged RAG2; arrays performed twice, total replicate number n = 4
Summary of the method: as §1

PHF21A = conditions: sheet "Array Heatmap"; GST-tagged PHF21A; arrays performed twice, total replicate number n = 4
Summary of the method: as §1

CHD4 (PPCC) = conditions: sheet "Array Heatmap"; GST-tagged CHD4 (PPCC); arrays performed twice, total replicate number n = 4
Summary of the method: as §1

KDM7A = conditions: sheet "Array Heatmap"; GST-tagged KDM7A; arrays performed twice, total replicate number n = 4
Summary of the method: as §1

DPF2 (PPC2W2) = conditions: sheet "Array Heatmap"; GST-tagged DPF2 (PPC2W2); arrays performed twice, total replicate number n = 4
Summary of the method: as §1

KDM4C (TTP) = conditions: sheet "Array Heatmap"; GST-tagged KDM4C (TTP); arrays performed twice, total replicate number n = 4
Summary of the method: as §1

ING4 = conditions: sheet "Array Heatmap"; GST-tagged ING4; arrays performed twice, total replicate number n = 4
Summary of the method: as §1

BPTF (PB) = conditions: sheet "Array Heatmap"; GST-tagged BPTF (PB); arrays performed twice, total replicate number n = 4
Summary of the method: as §1

H3.3K27me1: H3.3 15-34 [Peptide H3.3K27me1]
Array Heatmap signal, KDM5A (1) (KDM5A (1)): 0.5094
Array Heatmap signal, MORC3 (CW) (MORC3 (CW)): 0.3133
Array Heatmap signal, ING3 (ING3): 0.4473
Array Heatmap signal, TAF3 (TAF3): 0.2716
Array Heatmap signal, BAZ2B (BAZ2B): 0.5147
Array Heatmap signal, PHRF1 (RP) (PHRF1 (RP)): 0.3762
Array Heatmap signal, ING1 (ING1): 0.4683
Array Heatmap signal, DIDO1 (DIDO1): 0.5418
Array Heatmap signal, ING5 (ING5): 0.3774
Array Heatmap signal, CHD5 (PCC) (CHD5 (PCC)): 0.7906
Array Heatmap signal, PHF13 (PHF13): 0.6089
Array Heatmap signal, PHF8 (PHF8): 0.3072
Array Heatmap signal, TRIM66 (PB) (TRIM66 (PB)): 0.534
Array Heatmap signal, PHF23 (PHF23): 0.4768
Array Heatmap signal, CHD5 (PPCC) (CHD5 (PPCC)): 0.5646
Array Heatmap signal, MLL5 (MLL5): 0.5371
Array Heatmap signal, PHF2 (PHF2): 0.3646
Array Heatmap signal, KDM5B (3) (KDM5B (3)): 0.4744
Array Heatmap signal, ING2 (ING2): 0.5862
Array Heatmap signal, AIRE (PP) (AIRE (PP)): 0.5413
Array Heatmap signal, SP140L (SP140L): 0.3662
Array Heatmap signal, KDM5B (1) (KDM5B (1)): 0.6832
Array Heatmap signal, KDM5A (3) (KDM5A (3)): 0.366
Array Heatmap signal, RAG2 (RAG2): 0.2345
Array Heatmap signal, PHF21A (PHF21A): 0.4715
Array Heatmap signal, CHD4 (PPCC) (CHD4 (PPCC)): 0.5655
Array Heatmap signal, KDM7A (KDM7A): 0.4745
Array Heatmap signal, DPF2 (PPC2W2) (DPF2 (PPC2W2)): 0.6219
Array Heatmap signal, KDM4C (TTP) (KDM4C (TTP)): 0.5409
Array Heatmap signal, ING4 (ING4): 0.4785
Array Heatmap signal, BPTF (PB) (BPTF (PB)): 0.3434

H3.3K27me2 + S28p: H3.3 15-34
Array Heatmap signal, KDM5A (1) (KDM5A (1)): 0.4568
Array Heatmap signal, MORC3 (CW) (MORC3 (CW)): 0.3408
Array Heatmap signal, ING3 (ING3): 0.4796
Array Heatmap signal, TAF3 (TAF3): 0.2725
Array Heatmap signal, BAZ2B (BAZ2B): 0.4685
Array Heatmap signal, PHRF1 (RP) (PHRF1 (RP)): 0.4333
Array Heatmap signal, ING1 (ING1): 0.5375
Array Heatmap signal, DIDO1 (DIDO1): 0.6639
Array Heatmap signal, ING5 (ING5): 0.3515
Array Heatmap signal, CHD5 (PCC) (CHD5 (PCC)): 0.7282
Array Heatmap signal, PHF13 (PHF13): 0.6326
Array Heatmap signal, PHF8 (PHF8): 0.3445
Array Heatmap signal, TRIM66 (PB) (TRIM66 (PB)): 0.5871
Array Heatmap signal, PHF23 (PHF23): 0.5303
Array Heatmap signal, CHD5 (PPCC) (CHD5 (PPCC)): 0.5567
Array Heatmap signal, MLL5 (MLL5): 0.548
Array Heatmap signal, PHF2 (PHF2): 0.5406
Array Heatmap signal, KDM5B (3) (KDM5B (3)): 0.4734
Array Heatmap signal, ING2 (ING2): 0.6211
Array Heatmap signal, AIRE (PP) (AIRE (PP)): 0.3996
Array Heatmap signal, SP140L (SP140L): 0.3521
Array Heatmap signal, KDM5B (1) (KDM5B (1)): 0.6269
Array Heatmap signal, KDM5A (3) (KDM5A (3)): 0.4997
Array Heatmap signal, RAG2 (RAG2): 0.2608
Array Heatmap signal, PHF21A (PHF21A): 0.4472
Array Heatmap signal, CHD4 (PPCC) (CHD4 (PPCC)): 0.6277
Array Heatmap signal, KDM7A (KDM7A): 0.3322
Array Heatmap signal, DPF2 (PPC2W2) (DPF2 (PPC2W2)): 0.6352
Array Heatmap signal, KDM4C (TTP) (KDM4C (TTP)): 0.4645
Array Heatmap signal, ING4 (ING4): 0.4488
Array Heatmap signal, BPTF (PB) (BPTF (PB)): 0.3515

H3.3K27me2: H3.3 15-34 [Peptide H3.3K27me2]
Array Heatmap signal, KDM5A (1) (KDM5A (1)): 0.5224
Array Heatmap signal, MORC3 (CW) (MORC3 (CW)): 0.404
Array Heatmap signal, ING3 (ING3): 0.5037
Array Heatmap signal, TAF3 (TAF3): 0.2764
Array Heatmap signal, BAZ2B (BAZ2B): 0.4966
Array Heatmap signal, PHRF1 (RP) (PHRF1 (RP)): 0.4654
Array Heatmap signal, ING1 (ING1): 0.5537
Array Heatmap signal, DIDO1 (DIDO1): 0.6851
Array Heatmap signal, ING5 (ING5): 0.3925
Array Heatmap signal, CHD5 (PCC) (CHD5 (PCC)): 0.8298
Array Heatmap signal, PHF13 (PHF13): 0.6291
Array Heatmap signal, PHF8 (PHF8): 0.3923
Array Heatmap signal, TRIM66 (PB) (TRIM66 (PB)): 0.5739
Array Heatmap signal, PHF23 (PHF23): 0.5513
Array Heatmap signal, CHD5 (PPCC) (CHD5 (PPCC)): 0.607
Array Heatmap signal, MLL5 (MLL5): 0.5397
Array Heatmap signal, PHF2 (PHF2): 0.504
Array Heatmap signal, KDM5B (3) (KDM5B (3)): 0.5196
Array Heatmap signal, ING2 (ING2): 0.5964
Array Heatmap signal, AIRE (PP) (AIRE (PP)): 0.5737
Array Heatmap signal, SP140L (SP140L): 0.3774
Array Heatmap signal, KDM5B (1) (KDM5B (1)): 0.6552
Array Heatmap signal, KDM5A (3) (KDM5A (3)): 0.4717
Array Heatmap signal, RAG2 (RAG2): 0.2646
Array Heatmap signal, PHF21A (PHF21A): 0.5329
Array Heatmap signal, CHD4 (PPCC) (CHD4 (PPCC)): 0.613
Array Heatmap signal, KDM7A (KDM7A): 0.388
Array Heatmap signal, DPF2 (PPC2W2) (DPF2 (PPC2W2)): 0.6895
Array Heatmap signal, KDM4C (TTP) (KDM4C (TTP)): 0.5464
Array Heatmap signal, ING4 (ING4): 0.4872
Array Heatmap signal, BPTF (PB) (BPTF (PB)): 0.3599

H3.3K27me3 + S28p: H3.3 15-34
Array Heatmap signal, KDM5A (1) (KDM5A (1)): 0.3549
Array Heatmap signal, MORC3 (CW) (MORC3 (CW)): 0.3155
Array Heatmap signal, ING3 (ING3): 0.4009
Array Heatmap signal, TAF3 (TAF3): 0.2035
Array Heatmap signal, BAZ2B (BAZ2B): 0.3578
Array Heatmap signal, PHRF1 (RP) (PHRF1 (RP)): 0.3794
Array Heatmap signal, ING1 (ING1): 0.4657
Array Heatmap signal, DIDO1 (DIDO1): 0.6255
Array Heatmap signal, ING5 (ING5): 0.2601
Array Heatmap signal, CHD5 (PCC) (CHD5 (PCC)): 0.7455
Array Heatmap signal, PHF13 (PHF13): 0.4998
Array Heatmap signal, PHF8 (PHF8): 0.2831
Array Heatmap signal, TRIM66 (PB) (TRIM66 (PB)): 0.52
Array Heatmap signal, PHF23 (PHF23): 0.4498
Array Heatmap signal, CHD5 (PPCC) (CHD5 (PPCC)): 0.4194
Array Heatmap signal, MLL5 (MLL5): 0.4825
Array Heatmap signal, PHF2 (PHF2): 0.4942
Array Heatmap signal, KDM5B (3) (KDM5B (3)): 0.357
Array Heatmap signal, ING2 (ING2): 0.582
Array Heatmap signal, AIRE (PP) (AIRE (PP)): 0.3112
Array Heatmap signal, SP140L (SP140L): 0.3164
Array Heatmap signal, KDM5B (1) (KDM5B (1)): 0.5567
Array Heatmap signal, KDM5A (3) (KDM5A (3)): 0.3655
Array Heatmap signal, RAG2 (RAG2): 0.2001
Array Heatmap signal, PHF21A (PHF21A): 0.4021
Array Heatmap signal, CHD4 (PPCC) (CHD4 (PPCC)): 0.5244
Array Heatmap signal, KDM7A (KDM7A): 0.2454
Array Heatmap signal, DPF2 (PPC2W2) (DPF2 (PPC2W2)): 0.5839
Array Heatmap signal, KDM4C (TTP) (KDM4C (TTP)): 0.35
Array Heatmap signal, ING4 (ING4): 0.3661
Array Heatmap signal, BPTF (PB) (BPTF (PB)): 0.288
